The target in assay [1] is KRAS (G12D)::SOS1 (Homo sapiens (Human), UniProt P01116, G12D). The assay can be described thus: KRAS::SOS1 AlphaScreen binding assay, KRAS G12D. The gist of the method: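 AlphaScreen measurement of compound disruption of biotinylated, GDP-loaded KRAS 1-169 (10 nM; G12C 7.5 nM) binding to GST-SOS1 564-1049 (5 nM with G12D/G12C, 10 nM otherwise), with 10 μM GDP in PBS/0.1% BSA/0.05% Tween 20. Timing was 30 min compound preincubation, then 60 min with beads at room temperature; top concentration 100 μM, 4-parameter IC50.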

The test system of assay [2] is SAS cells. The assay can be described thus: SAS CTG proliferation assay (120 h) (HNSCC, wt amplified). It counts as cell-based. In short, it runs like this:
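SAS cells plated at 300 per well in DMEM:F12 with 10% FCS and left overnight, then given compounds acoustically. After 120 h exposure, viability read by CellTiter-Glo as percent of DMSO control. IC50 from four-parameter non-linear regression.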

Assay [3] concerns LOVO cells. The assay can be described thus: LOVO CTG proliferation assay (120 h) (CRC, G13D). The class given is cell-based. Particulars: Homo sapiens, CTG 120 h. The gist of the method:
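LOVO cells, 1000 per well in DMEM + 10% FCS, were plated overnight and then dosed with compound from DMSO stock. After 120 h at 37 °C, viability was read by CellTiter-Glo luminescence as a percentage of DMSO controls. IC50 was derived by four-parameter non-linear regression.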

KRAS (G12D)::SOS1, sequence (P01116 other isoform, or with tags, fused parts or gaps G12D): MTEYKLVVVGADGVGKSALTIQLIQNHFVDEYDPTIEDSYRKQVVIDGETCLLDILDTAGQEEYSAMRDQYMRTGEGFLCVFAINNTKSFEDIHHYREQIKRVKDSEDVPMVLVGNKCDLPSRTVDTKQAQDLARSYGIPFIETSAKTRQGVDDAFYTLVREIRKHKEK

In the case of `CC(C)NC(=O)Cc1ccn(-c2cc(O[C@@H](C)[C@@H]3CCCN3C)nc(-c3noc4c3CCC[C@@]43CCCc4sc(N)c(C#N)c43)n2)n1` [II-182], the half-inhibitory concentration (IC50) (in general, the midpoint of a concentration-inhibition curve) in assay [1] was 1 nM; in assay [2], 32 nM; in assay [3] it was 38 nM.
As to `C[C@H](Oc1cc(N2CCN(C)C3(CC3)C2)nc(-c2noc3c2CCC[C@@]32CCCc3sc(N)c(C#N)c32)n1)[C@@H]1CCCN1C` [II-171], the half-inhibitory concentration (IC50) was 1 nM in assay [1], 1100 nM in assay [2] and 593 nM in assay [3].
In the case of `C[C@H](Oc1cc(-n2cc(C(=O)N(C)C)nn2)nc(-c2noc3c2CCC[C@@]32CCCc3sc(N)c(C#N)c32)n1)[C@@H]1CCCN1C` [II-132], the results for the half-inhibitory concentration (IC50) in assay [1], in assay [2] and in assay [3] were 3 nM, 319 nM and 120 nM, respectively.
The like results for `C[C@H](Oc1cc(N2C[C@@H]3[C@@H](N)[C@@H]3C2)nc(-c2noc3c2CCC[C@@]32CCCc3sc(N)c(C#N)c32)n1)[C@@H]1CCCN1C` [II-167] were, in that order, 2 nM, 1390 nM and 6430 nM.
Consider `C[C@H](Oc1cc(-n2nccc2-c2ccncc2)nc(-c2noc3c2CCC[C@@]32CCCc3sc(N)c(C#N)c32)n1)[C@@H]1CCCN1C` [II-131], for which the 50% inhibitory concentration (IC50) in assay [1] is 6 nM; in assay [2] it was 623 nM; in assay [3], 225 nM.
For the molecule `CO[C@H]1CCN(C)[C@@H]1[C@H](C)Oc1cc(-n2ccc(C(N)=O)n2)nc(-c2noc3c2CCC[C@@]32CCCc3sc(N)c(C#N)c32)n1` [II-201], the half-inhibitory concentration (IC50) in assay [1] came out at 2 nM; in assay [2], 20 nM; in assay [3] it was 33 nM.
`C[C@H](Oc1cc(-c2ccn(C)n2)nc(-c2noc3c2CCC[C@@]32CCCc3sc(N)c(C#N)c32)n1)[C@@H]1C[C@H](F)CN1C` [II-144]: the IC50 stood at 14 nM in assay [1], 302 nM in assay [2] and 2840 nM in assay [3].
Take `CO[C@H]1CCN(C)[C@@H]1[C@H](C)Oc1cc(N2CCNC3(CC3)C2)nc(-c2noc3c2CCC[C@@]32CCCc3sc(N)c(C#N)c32)n1` [II-184]: the IC50 was determined as 1 nM in assay [1], 882 nM in assay [2] and 325 nM in assay [3].
For `C[C@H](Oc1cc(N2CCNC[C@@]23CCOC3)nc(-c2onc3c2CCC[C@@]32CCCc3sc(N)c(C#N)c32)n1)[C@@H]1CCCN1C` [I-13], in that order: 1 nM, 294 nM and 1510 nM.
For the molecule `C[C@H](Oc1cc(-n2cc3c(n2)CNC3)nc(-c2noc3c2CCC[C@@]32CCCc3sc(N)c(C#N)c32)n1)[C@@H]1C[C@@H](F)CN1C` [II-154], the IC50 in assay [1] stood at 1 nM; in assay [2] it was 747 nM; in assay [3], 904 nM.
For `C[C@H](Oc1cc(-n2ccc(-c3cn(C4CCOCC4)nn3)n2)nc(-c2noc3c2CCC[C@@]32CCCc3sc(N)c(C#N)c32)n1)[C@@H]1CCCN1C` [II-210], the IC50 in assay [1] was determined as 1 nM; in assay [2], 14 nM; in assay [3], 35 nM.
As to `C[C@@H]1CN(c2cc(O[C@@H](C)[C@@H]3CCCN3C)nc(-c3noc4c3CCC[C@@]43CCCc4sc(N)c(C#N)c43)n2)CCN1` [II-161], the concentration for half-maximal inhibition (IC50) in assay [1] was found to be 2 nM; in assay [2] it was 1580 nM; in assay [3] it was 472 nM.
For the molecule `C[C@H](Oc1cc(-n2cc3c(n2)CN(C)C3)nc(-c2noc3c2CCC[C@@]32CCCc3sc(N)c(C#N)c32)n1)[C@@H]1CCCN1C` [II-174], the figures for the IC50 in assay [1], in assay [2] and in assay [3] were 1 nM, 248 nM and 139 nM, respectively.
On to `C[C@H](Oc1cc(-n2ccc(-c3cnccn3)n2)nc(-c2noc3c2CCC[C@@]32CCCc3sc(N)c(C#N)c32)n1)[C@@H]1CCCN1C` [II-130], for which the IC50 in assay [1] was 2 nM; in assay [2], 176 nM; in assay [3], 190 nM.
As to `CO[C@@H]1C[C@@H]([C@H](C)Oc2cc(N3CCNC4(CC4)C3)nc(-c3noc4c3CCC[C@@]43CCCc4sc(N)c(C#N)c43)n2)N(C)C1` [II-187], the values for the half-maximal inhibitory concentration (IC50) in assay [1], in assay [2] and in assay [3] were 1 nM, 1150 nM and 429 nM, respectively.
In the case of `C[C@H](Oc1cc(-n2cnc(C(=O)N(C)C)c2)nc(-c2noc3c2CCC[C@@]32CCCc3sc(N)c(C#N)c32)n1)[C@@H]1CCCN1C` [II-126], the IC50 in assay [1] was found to be 7 nM; in assay [2], 189 nM; in assay [3], 251 nM.
Take `C[C@H](Oc1cc(-n2cc3c(n2)CCN(C)C3)nc(-c2noc3c2CCC[C@@]32CCCc3sc(N)c(C#N)c32)n1)[C@@H]1CCCN1C` [II-141]: the figures for the half-maximal inhibitory concentration (IC50) in assay [1], in assay [2] and in assay [3] were 2 nM, 873 nM and 284 nM, respectively.
As for `[2H]C([2H])([2H])N1C[C@H](F)C[C@H]1[C@H](C)Oc1cc(N2CCN(C([2H])([2H])[2H])C3(CC3)C2)nc(-c2noc3c2CCC[C@@]32CCCc3sc(N)c(C#N)c32)n1` [II-207], the half-maximal inhibitory concentration (IC50) in assay [1] amounted to 1 nM; in assay [2], 1080 nM; in assay [3] it was 310 nM.
On to `C[C@H](Oc1cc(N2CCN[C@@H](C)C2)nc(-c2noc3c2CCC[C@@]32CCCc3sc(N)c(C#N)c32)n1)[C@@H]1CCCN1C` [II-162], for which the IC50 was found to be 1 nM in assay [1], 2120 nM in assay [2] and 401 nM in assay [3].
With `C[C@H](Oc1cc(-n2cc3c(n2)CNC3)nc(-c2noc3c2CCC[C@@]32CCCc3sc(N)c(C#N)c32)n1)[C@@H]1CCCN1C` [II-168], the IC50 in assay [1] is 1 nM; in assay [2], 441 nM; in assay [3], 193 nM.
For `C[C@H](Oc1cc([C@H]2CCNC2)nc(-c2noc3c2CCC[C@@]32CCCc3sc(N)c(C#N)c32)n1)[C@@H]1CCCN1C` [II-163], the IC50 is 1 nM in assay [1], 274 nM in assay [2] and 1090 nM in assay [3].
As to `CO[C@H]1CCN(C)[C@@H]1[C@H](C)Oc1cc(-n2ccc(C(=O)N[C@@H]3CCOC3)n2)nc(-c2noc3c2CCC[C@@]32CCCc3sc(N)c(C#N)c32)n1` [II-197], the values for the IC50 in assay [1], in assay [2] and in assay [3] were 1 nM, 8 nM and 14 nM, respectively.
The like results for `C[C@H](Oc1nc(-c2noc3c2CCC[C@@]32CCCc3sc(N)c(C#N)c32)nc(N2CCN(C)C3(CC3)C2)c1Cl)[C@@H]1C[C@@H](F)CN1C` [II-176] were, in that order, 2 nM, 4940 nM and 2680 nM.
For the molecule `C[C@H](Oc1nc(-c2noc3c2CCC[C@@]32CCCc3sc(N)c(C#N)c32)nc(N2C[C@H](C)NC3(CC3)C2)c1F)[C@@H]1C[C@@H](F)CN1C` [II-157], the 50% inhibitory concentration (IC50) in assay [1] came out at 1 nM; in assay [2], 1190 nM; in assay [3] it was 136 nM.
With `C[C@H](Oc1cc(C2=CCNCC2)nc(-c2noc3c2CCC[C@@]32CCCc3sc(N)c(C#N)c32)n1)[C@@H]1CCCN1C` [II-164], the IC50 in assay [1] was found to be 1 nM; in assay [2] it was 1500 nM; in assay [3], 246 nM.
In the case of `C[C@H](Oc1cc(-c2cccc(C(N)=O)c2)nc(-c2noc3c2CCC[C@@]32CCCc3sc(N)c(C#N)c32)n1)[C@@H]1CCCN1C` [II-133], the 50% inhibitory concentration (IC50) in assay [1] was found to be 6 nM; in assay [2] it was 202 nM; in assay [3], 459 nM.
As for `C[C@H](Oc1cc(-n2cc3ccn([C@@H](C)c4ccccn4)c(=O)c3n2)nc(-c2noc3c2CCC[C@@]32CCCc3sc(N)c(C#N)c32)n1)[C@@H]1CCCN1C` [II-205], the values for the IC50 in assay [1], in assay [2] and in assay [3] were 8 nM, 20 nM and 22 nM, respectively.
`C[C@H](Oc1cc(-c2cn(C)nn2)nc(-c2onc3c2CCC[C@@]32CCCc3sc(N)c(C#N)c32)n1)[C@@H]1CCCN1C` [I-16]: the values for the concentration for half-maximal inhibition (IC50) in assay [1] and in assay [2] were 2 nM and 77 nM, respectively.
As to `C[C@H](Oc1nc(-c2noc3c2CCC[C@@]32CCCc3sc(N)c(C#N)c32)nc(N2CCNC3(CC3)C2)c1Cl)[C@@H]1C[C@@H](F)CN1C` [II-156], the IC50 in assay [1] was determined as 1 nM; in assay [2], 440 nM; in assay [3], 226 nM.
Turning to `CC(=O)N1CCN(c2cc(O[C@@H](C)[C@@H]3CCCN3C)nc(-c3noc4c3CCC[C@@]43CCCc4sc(N)c(C#N)c43)n2)CC12CC2` [II-178], the results for the IC50 in assay [1], in assay [2] and in assay [3] were 2 nM, 2570 nM and 624 nM, respectively.
In the case of `CO[C@H]1CCN(C)[C@@H]1[C@H](C)Oc1cc(-n2ccc(C(=O)N[C@H]3CCOC3)n2)nc(-c2noc3c2CCC[C@@]32CCCc3sc(N)c(C#N)c32)n1` [II-198], the figures for the IC50 in assay [1], in assay [2] and in assay [3] were 1 nM, 8 nM and 25 nM, respectively.
Consider `CC(C)N1CCCN(c2cc(-c3ccn(C)n3)nc(-c3noc4c3CCC[C@@]43CCCc4sc(N)c(C#N)c43)n2)[C@@H](C)C1` [II-170], for which the IC50 in assay [1] was 9 nM; in assay [2], 1050 nM; in assay [3] it was 270 nM.
Consider `C[C@H](Oc1cc(N2CCN(C)C3(CCOC3)C2)nc(-c2noc3c2CCC[C@@]32CCCc3sc(N)c(C#N)c32)n1)[C@@H]1C[C@@H](F)CN1C` (stereo partly shown) [II-151], for which the IC50 in assay [1] is 2 nM; in assay [2], 161 nM; in assay [3], 1060 nM.
Turning to `CC(C)N1CCCN(c2cc(-n3ccnc3)nc(-c3noc4c3CCC[C@@]43CCCc4sc(N)c(C#N)c43)n2)[C@@H](C)C1` [II-169], the concentration for half-maximal inhibition (IC50) in assay [1] turned out to be 9 nM; in assay [2] it was 4410 nM; in assay [3] it was 553 nM.
In assay [1], `C[C@H]1CNCCCN1c1nc(-c2onc3c2CCC[C@@]32CCCc3sc(N)c(C#N)c32)cc(C(F)(F)F)n1` [I-15] yielded an IC50 of 348 nM.
Take `CNC1CCN(c2cc(O[C@@H](C)[C@@H]3CCCN3C)nc(-c3noc4c3CCC[C@@]43CCCc4sc(N)c(C#N)c43)n2)CC1` [II-214]: the IC50 in assay [1] turned out to be 1 nM.

The values are drawn from patent publication US20240174690A1, “ANNULATED 2-AMINO-3-CYANO THIOPHENES AND DERIVATIVES FOR THE TREATMENT OF CANCER” (BOEHRINGER INGELHEIM INTERNATIONAL GMBH, priority 2021, published 2024).
